Where “and” joins values, the source holds several entries; their conditions need not be identical. Equal entries are not always repeated. Entries after “also recorded” stand apart in the source; their conditions may differ.
How the values were obtained:
Type in all cases: in vivo
rat heart [1] = experiment: ST segment elevation (ECG) during final permanent LAD occlusion (FPO), rat repetitive ischemia protocol (RIP) arteriogenesis model
rat heart [2] = experiment: Ventricular arrhythmias during FPO, Lown classification and VPB score
rat heart [3] = experiment: Infarct size by TTC staining after 90 minutes of LAD occlusion; conditions: for Infarct size: 90 min LAD occlusion, percentage of the area of the left ventricle

CC(=O)Oc1ccccc1C(=O)O [ASA+NTG-PLACEBO, acetyl salicylic acid]
ST segment elevation (rat heart [1]; 5 DAYS RIP, after FPO): 0.144±0.091 mV
rats with class IIIa arrhythmias (rat heart [2]; 5 DAYS RIP, during FPO): 16.7%
rats with class IVb arrhythmias (rat heart [2]; 5 DAYS RIP, during FPO): 83.3%
VPB-Score (rat heart [2]; RIP (Modules 2-4)): 5.50
Infarct size (rat heart [3]; 5 DAYS RIP): 13.92±1.71%
Infarct size (rat heart [3]; 5 DAYS RIP, listed as NTG-PLACEBO+ASS): 13.92±1.71%

CC(=O)Oc1ccccc1C(=O)O [ASA+PBS, acetyl salicylic acid]
ST segment elevation compared to controls (in words) (rat heart [1]; 5 DAYS RIP, after FPO): higher compared to the PBS control group, but there is no significance
arrhythmias / VPB-Score compared to controls (in words) (rat heart [2]; 5 DAYS RIP, during FPO): higher compared to the controls
Infarct size (rat heart [3]; 5 DAYS RIP): 12.51±3.05%
infarct size compared to controls (in words) (rat heart [3]; 5 DAYS RIP, listed as ASA): increase of infarct volumes
infarct size compared to controls (in words) (rat heart [3]; 5 DAYS RIP, listed as ASS+PBS): minimally increased

O=[N+]([O-])O[C@H]1CO[C@H]2[C@@H]1OC[C@H]2O[N+](=O)[O-] [ISDN, isosorbide dinitrate]
ST segment elevation compared to controls (in words) (rat heart [1]; rat, in vivo): lower ST segment elevation course; also recorded: decreased compared to the PBS group but there is no significance; also recorded: non-significantly decreased; also recorded: decreases in ST elevation
arrhythmias / VPB-Score compared to controls (in words) (rat heart [2]; rat, in vivo): less arrhythmias
infarct size compared to controls (in words) (rat heart [3]; rat, in vivo): smaller compared to controls (treated with PBS or ISDN-Placebo), but there is no significance; also recorded: smaller; also recorded: reduced infarct volumes

O=[N+]([O-])OCC(CO[N+](=O)[O-])O[N+](=O)[O-] [NTG, nitroglycerin]
ST segment elevation compared to controls (in words) (rat heart [1]; rat, in vivo): lower ST segment elevation course; also recorded: significantly decreased; also recorded: significantly attenuated ST elevation
VPB-Score (rat heart [2]; rat, in vivo): 5.77 and 3.60
arrhythmias / VPB-Score compared to controls (in words) (rat heart [2]; rat, in vivo): more often scaled into grade 0; also recorded: reduced arrhythmias; also recorded: decreased serious arrhythmias
rats with class 0 arrhythmias (rat heart [2]; rat, in vivo): 57.1%
rats with class IIIa arrhythmias (rat heart [2]; rat, in vivo): 14.3%
rats with class IVb arrhythmias (rat heart [2]; rat, in vivo): 85.7% and 42.9%
decrease of infarct volume compared to the control group (rat heart [3]; rat, in vivo): more than 50%
infarct size compared to controls (in words) (rat heart [3]; rat, in vivo): significantly smaller infarct area; also recorded: decreases the size of an experimentally induced myocardial infarct
